In PMC2934701 (The Journal of Biological Chemistry, 2010):
Changes are numbered by the printed parent chain. pEC50: −log10 of the molar value.

Legend:
Test in all cases: Fluo-4 calcium assay, HEK293T + Galpha16gust44
Format in all cases: cell-based
hTAS2R16 (ssr3-hTAS2R16) [1] = biological target: T1, hTAS2R16 (ssr3-hTAS2R16) (Homo sapiens, UniProt Q9NYV7, E86D)
T1 sequence (Q9NYV7 1-291 E86D): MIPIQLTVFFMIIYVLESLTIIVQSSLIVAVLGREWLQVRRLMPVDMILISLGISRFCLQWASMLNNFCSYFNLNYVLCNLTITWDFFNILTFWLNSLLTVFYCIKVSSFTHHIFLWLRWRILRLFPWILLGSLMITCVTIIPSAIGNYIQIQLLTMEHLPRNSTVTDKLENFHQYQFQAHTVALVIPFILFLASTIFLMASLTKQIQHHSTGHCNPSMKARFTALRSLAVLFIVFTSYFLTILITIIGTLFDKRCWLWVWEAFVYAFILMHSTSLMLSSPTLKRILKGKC

hTAS2R16 (ssr3-hTAS2R16) [2] = biological target: T2, hTAS2R16 (ssr3-hTAS2R16) (Homo sapiens, UniProt Q9NYV7, F240Y)
T2 sequence (Q9NYV7 1-291 F240Y): T1 sequence (Q9NYV7 1-291 E86D) with D86E, F240Y

hTAS2R16 (ssr3-hTAS2R16) [3] = biological target: T3, hTAS2R16 (ssr3-hTAS2R16) (Homo sapiens, UniProt Q9NYV7, H181L)
T3 sequence (Q9NYV7 1-291 H181L): T1 sequence (Q9NYV7 1-291 E86D) with D86E, H181L

hTAS2R16 (ssr3-hTAS2R16) [4] = biological target: T4, hTAS2R16 (ssr3-hTAS2R16) (Homo sapiens, UniProt Q9NYV7, F240L)
T4 sequence (Q9NYV7 1-291 F240L): T1 sequence (Q9NYV7 1-291 E86D) with D86E, F240L

hTAS2R16 (ssr3-hTAS2R16) [5] = biological target: T5, hTAS2R16 (ssr3-hTAS2R16) (Homo sapiens, UniProt Q9NYV7, F93L)
T5 sequence (Q9NYV7 1-291 F93L): T1 sequence (Q9NYV7 1-291 E86D) with D86E, F93L

hTAS2R16 (ssr3-hTAS2R16) [6] = biological target: T6, hTAS2R16 (ssr3-hTAS2R16) (Homo sapiens, UniProt Q9NYV7, Q177E)
T6 sequence (Q9NYV7 1-291 Q177E): T1 sequence (Q9NYV7 1-291 E86D) with D86E, Q177E

hTAS2R16 (ssr3-hTAS2R16) [7] = biological target: T7, hTAS2R16 (ssr3-hTAS2R16) (Homo sapiens, UniProt Q9NYV7, F93A)
T7 sequence (Q9NYV7 1-291 F93A): T1 sequence (Q9NYV7 1-291 E86D) with D86E, F93A

hTAS2R16 (ssr3-hTAS2R16) [8] = biological target: T8, hTAS2R16 (ssr3-hTAS2R16) (Homo sapiens, UniProt Q9NYV7, W94F)
T8 sequence (Q9NYV7 1-291 W94F): T1 sequence (Q9NYV7 1-291 E86D) with D86E, W94F

Q: Which results are given for `OCc1ccccc1O[C@@H]1O[C@H](CO)[C@@H](O)[C@H](O)[C@H]1O` [salicin]?
A: pEC50 (hTAS2R16 (ssr3-hTAS2R16) [1]): 2.67; pEC50 (hTAS2R16 (ssr3-hTAS2R16) [2]): 2.61; pEC50 (hTAS2R16 (ssr3-hTAS2R16) [3]): 1.89; pEC50 (hTAS2R16 (ssr3-hTAS2R16) [4]): < 1.52; pEC50 (hTAS2R16 (ssr3-hTAS2R16) [5]): 2.38; pEC50 (hTAS2R16 (ssr3-hTAS2R16) [6]): 3.66; pEC50 (hTAS2R16 (ssr3-hTAS2R16) [7]): 1.94; pEC50 (hTAS2R16 (ssr3-hTAS2R16) [8]): 2.01
